Source: ChEMBL document CHEMBL2413072, “Synthesis and in vitro anticancer studies of novel C-2 arylidene congeners of lantadenes” (2013)

Columns and labels:
Format in all cases: functional
HCT-116 [1] = test: Growth inhibition of human HCT116 cells by sulforhodamine B assay
HOP-62 = test: Growth inhibition of human HOP62 cells by sulforhodamine B assay
HOP-92 = test: Growth inhibition of human HOP92 cells by sulforhodamine B assay
MDA-MB-435 = test: Growth inhibition of human MDA-MB-435 cells assessed as cell growth at 10^-8 M by sulforhodamine B assay; conditions: read-out: Activity
Malme-3M = test: Growth inhibition of human MALME-3M cells assessed as cell growth at 10^-8 M by sulforhodamine B assay; conditions: read-out: Activity
SW-620 = test: Growth inhibition of human SW620 cells assessed as cell growth at 10^-8 M by sulforhodamine B assay; conditions: read-out: Activity
HCT-15 = test: Growth inhibition of human HCT15 cells assessed as cell growth at 10^-8 M by sulforhodamine B assay; conditions: read-out: Activity
[2] = Growth inhibition of human HCC2998 cells assessed as cell growth at 10^-8 M by sulforhodamine B assay; conditions: HCC 2998, read-out: Activity
COLO 205 = test: Growth inhibition of human COLO205 cells assessed as cell growth at 10^-8 M by sulforhodamine B assay; conditions: read-out: Activity
NCI-H460 [3] = test: Growth inhibition of human NCI-H460 cells assessed as cell growth at 10^-8 M by sulforhodamine B assay; conditions: read-out: Activity
NCI-H322M = test: Growth inhibition of human NCI-H322M cells assessed as cell growth at 10^-8 M by sulforhodamine B assay; conditions: read-out: Activity
MOLT-4 = test: Growth inhibition of human MOLT4 cells assessed as cell growth at 10^-8 M by sulforhodamine B assay; conditions: read-out: Activity
[4] = Growth inhibition of human Hs 578T cells by sulforhodamine B assay
DU-145 = test: Growth inhibition of human DU145 cells by sulforhodamine B assay
SK-MEL-5 = test: Growth inhibition of human SK-MEL-5 cells by sulforhodamine B assay
U-251 = test: Growth inhibition of human U251 cells by sulforhodamine B assay
SF-295 = test: Growth inhibition of human SF295 cells by sulforhodamine B assay
PC-3 [5] = test: Growth inhibition of human PC3 cells assessed as cell growth at 10^-4 M by sulforhodamine B assay; conditions: read-out: Activity
SK-MEL-28 = test: Growth inhibition of human SK-MEL-28 cells assessed as cell growth at 10^-4 M by sulforhodamine B assay; conditions: read-out: Activity
LOX IMVI [6] = test: Growth inhibition of human LOXIMVI cells assessed as cell growth at 10^-4 M by sulforhodamine B assay; conditions: read-out: Activity
SN12C = test: Growth inhibition of human SN12C cells assessed as cell growth at 10^-6 M by sulforhodamine B assay; conditions: read-out: Activity
OVCAR-8 = test: Growth inhibition of human OVCAR8 cells assessed as cell growth at 10^-6 M by sulforhodamine B assay; conditions: read-out: Activity
SF-539 = test: Growth inhibition of human SF539 cells assessed as cell growth at 10^-6 M by sulforhodamine B assay; conditions: read-out: Activity
HCT-116 [7] = test: Growth inhibition of human HCT116 cells assessed as cell growth at 10^-6 M by sulforhodamine B assay; conditions: read-out: Activity
RPMI-8226 = test: Growth inhibition of human RPMI8226 cells assessed as cell growth at 10^-6 M by sulforhodamine B assay; conditions: read-out: Activity
K562 [8] = test: Growth inhibition of human K562 cells assessed as cell growth at 10^-6 M by sulforhodamine B assay; conditions: read-out: Activity
RXF 393 [9] = test: Growth inhibition of human RXF393 cells assessed as cell growth at 10^-7 M by sulforhodamine B assay; conditions: read-out: Activity
SK-OV-3 = test: Growth inhibition of human SKOV3 cells assessed as cell growth at 10^-7 M by sulforhodamine B assay; conditions: read-out: Activity
[10] = Growth inhibition of human NCI-ADR-RES cells assessed as cell growth at 10^-7 M by sulforhodamine B assay; conditions: read-out: Activity
LOX IMVI [11] = test: Growth inhibition of human LOXIMVI cells assessed as cell growth at 10^-7 M by sulforhodamine B assay; conditions: read-out: Activity
KM12 = test: Growth inhibition of human KM12 cells assessed as cell growth at 10^-7 M by sulforhodamine B assay; conditions: read-out: Activity
NCI-H460 [12] = test: Growth inhibition of human NCI-H460 cells assessed as cell growth at 10^-7 M by sulforhodamine B assay; conditions: read-out: Activity
NCI-H522 = test: Growth inhibition of human NCI-H522 cells assessed as cell growth at 10^-7 M by sulforhodamine B assay; conditions: read-out: Activity
K562 [13] = test: Growth inhibition of human K562 cells assessed as cell growth at 10^-7 M by sulforhodamine B assay; conditions: read-out: Activity
T47D = test: Growth inhibition of human T47D cells assessed as cell growth at 10^-8 M by sulforhodamine B assay; conditions: read-out: Activity
PC-3 [14] = test: Growth inhibition of human PC3 cells assessed as cell growth at 10^-8 M by sulforhodamine B assay; conditions: read-out: Activity
RXF 393 [15] = test: Growth inhibition of human RXF393 cells assessed as cell growth at 10^-8 M by sulforhodamine B assay; conditions: read-out: Activity
ACHN = test: Growth inhibition of human ACHN cells assessed as cell growth at 10^-8 M by sulforhodamine B assay; conditions: read-out: Activity
[16] = Growth inhibition of human NCI-ADR-RES cells assessed as cell growth at 10^-8 M by sulforhodamine B assay; conditions: read-out: Activity
[17] = read-out: LC50 (the source's name)
[18] = read-out: pLC50 (the source's name) (converted)

Compound: C/C=C(/C)C(=O)O[C@@H]1CC(C)(C)C[C@H]2C3=CC[C@@H]4[C@@]5(C)CC[C@H](O)C(C)(C)[C@@H]5CC[C@@]4(C)[C@]3(C)CC[C@@]12C(=O)O [Reduced Lantadene A]
- GI50 (HCT-116 [1]; read-out: GI50): 2450 nM
- LC50 (HCT-116 [1]; read-out: LC50): 65 µM
- TGI (HCT-116 [1]; read-out: TGI): 10.1 µM
- GI50 (HCT-116 [1]; read-out: pGI50 (converted)): 2450 nM
- LC50 (HCT-116 [1]; read-out: pLC50 (converted)): 64.6 µM
- TGI (HCT-116 [1]; read-out: pTGI (converted)): 10.2 µM
- GI50 (HOP-62; read-out: GI50): 1870 nM
- TGI (HOP-62; read-out: TGI): 3.55 µM
- GI50 (HOP-62; read-out: pGI50 (converted)): 1860 nM
- TGI (HOP-62; read-out: pTGI (converted)): 3.55 µM
- GI50 (HOP-92; read-out: GI50): 1410 nM
- CC50 (HOP-92; [17]): 6.21 µM
- TGI (HOP-92; read-out: TGI): 2960 nM
- GI50 (HOP-92; read-out: pGI50 (converted)): 1410 nM
- CC50 (HOP-92; [18]): 6.17 µM
- TGI (HOP-92; read-out: pTGI (converted)): 2950 nM
- growth at 0.01 µM (MDA-MB-435): 98%
- growth at 0.01 µM (Malme-3M): 94%
- growth at 0.01 µM (SW-620): 99%
- growth at 0.01 µM (HCT-15): 100%
- growth at 0.01 µM [2]: 99%
- growth at 0.01 µM (COLO 205): 107%
- growth at 0.01 µM (NCI-H460 [3]): 101%
- growth at 0.01 µM (NCI-H322M): 102%
- growth at 0.01 µM (MOLT-4): 103%
- GI50 ([4]; read-out: GI50): 2130 nM
- CC50 [4, 17]: > 100 µM
- TGI ([4]; read-out: TGI): 5.21 µM
- GI50 ([4]; read-out: pGI50 (converted)): 2140 nM
- CC50 [4, 18]: > 100 µM
- TGI ([4]; read-out: pTGI (converted)): 5.25 µM
- GI50 (DU-145; read-out: GI50): 2120 nM
- TGI (DU-145; read-out: TGI): 4.04 µM
- GI50 (DU-145; read-out: pGI50 (converted)): 2140 nM
- TGI (DU-145; read-out: pTGI (converted)): 4.07 µM
- GI50 (SK-MEL-5; read-out: GI50): 1800 nM
- CC50 (SK-MEL-5; [17]): 17.2 µM
- TGI (SK-MEL-5; read-out: TGI): 4.39 µM
- GI50 (SK-MEL-5; read-out: pGI50 (converted)): 1780 nM
- CC50 (SK-MEL-5; [18]): 17.4 µM
- TGI (SK-MEL-5; read-out: pTGI (converted)): 4.37 µM
- GI50 (U-251; read-out: GI50): 1590 nM
- CC50 (U-251; [17]): 6.6 µM
- TGI (U-251; read-out: TGI): 3.24 µM
- GI50 (U-251; read-out: pGI50 (converted)): 1580 nM
- CC50 (U-251; [18]): 6.61 µM
- TGI (U-251; read-out: pTGI (converted)): 3.24 µM
- GI50 (SF-295; read-out: GI50): 1620 nM
- CC50 (SF-295; [17]): 7.74 µM
- TGI (SF-295; read-out: TGI): 3.54 µM
- GI50 (SF-295; read-out: pGI50 (converted)): 1620 nM
- CC50 (SF-295; [18]): 7.76 µM
- TGI (SF-295; read-out: pTGI (converted)): 3.55 µM
- growth at 100 µM (PC-3 [5]): -73%
- growth at 100 µM (SK-MEL-28): -41%
- growth at 100 µM (LOX IMVI [6]): -62%
- growth at 1 µM (SN12C): 83%
- growth at 1 µM (OVCAR-8): 97%
- growth at 1 µM (SF-539): 101%
- growth at 1 µM (HCT-116 [7]): 82%
- growth at 1 µM (RPMI-8226): 70%
- growth at 1 µM (K562 [8]): 85%
- growth at 0.1 µM (RXF 393 [9]): 95%
- growth at 0.1 µM (SK-OV-3): 102%
- growth at 0.1 µM [10]: 105%
- growth at 0.1 µM (LOX IMVI [11]): 100%
- growth at 0.1 µM (KM12): 103%
- growth at 0.1 µM (NCI-H460 [12]): 99%
- growth at 0.1 µM (NCI-H522): 100%
- growth at 0.1 µM (K562 [13]): 105%
- growth at 0.01 µM (T47D): 101%
- growth at 0.01 µM (PC-3 [14]): 92%
- growth at 0.01 µM (RXF 393 [15]): 93%
- growth at 0.01 µM (ACHN): 105%
- growth at 0.01 µM [16]: 102%
